Each compound was assayed against [35S]-TBPS binding, rat brain cortical membranes (assay: Steroid inhibition of [35S]-TBPS binding). Conditions: 3 nM [35S]-TBPS, in the presence of 5 mM GABA.
Protocol: [^35S]-t-Butylbicyclophosphorothionate (TBPS) binding assays using rat brain cortical membranes in the presence of 5 mM GABA has been described (Gee et al, J. Pharmacol. Exp. Ther. 1987, 241, 346-353; Hawkinson et al, Mol. Pharmacol. 1994, 46, 977-985; Lewin, A. H et al., Mol. Pharmacol. 1989, 35, 189-194).
Briefly, cortices are rapidly removed following decapitation of carbon dioxide-anesthetized Sprague-Dawley rats (200-250 g). The cortices are homogenized in 10 volumes of ice-cold 0.32 M sucrose using a glass/teflon homogenizer and centrifuged at 1500×g for 10 min at 4° C. The resultant supernatants are centrifuged at 10,000×g for 20 min at 4° C. to obtain the P2 pellets. The P2 pellets are resuspended in 200 mM NaCl/50 mM Na—K phosphate pH 7.4 buffer and centrifuged at 10,000×g for 10 min at 4° C. This washing procedure is repeated twice and the pellets are resuspended in 10 volumes of buffer. Aliquots ([…]) of the membrane suspensions are incubated with 3 nM [^35S]-TBPS and […] aliquots of test drug dissolved in dimethyl sulfoxide (DMSO) (final 0.5%) in the presence of 5 mM GABA. The incubation is brought to a final volume of 1.0 mL with buffer. Nonspecific binding is determined in the presence of […] and ranged from 15 to 25%. Following a 90 min incubation at room temp, the assays are terminated by filtration through glass fiber filters (Schleicher and Schuell No. 32) using a cell harvester (Brandel) and rinsed three times with ice-cold buffer. Filter bound radioactivity is measured by liquid scintillation spectrometry. Non-linear curve fitting of the overall data for each drug averaged for each concentration is done using Prism (GraphPad). […] The concentration of test compound producing 50% inhibition (IC50) of specific binding and the maximal extent of inhibition (Imax) are determined for the individual experiments with the same model used for the overall data and then the means±SEM.s of the individual experiments are calculated.
Various compounds are or can be screened to determine their potential as modulators of [^35S]-TBPS binding in vitro. These assays are or can be performed in accordance with the above
For `C[C@H]([C@H]1CC[C@H]2[C@@H]3CC[C@@H]4C[C@](C)(O)CC[C@@H]4[C@H]3CC[C@]12C)N1Cc2cc(C#N)ccc2C1=O` [Example 40, 2-((R)-1-((3R,5R,8R,9R,10S,13S,14S,17S)-3-hydroxy-3,13-dimethylhexadecahydro-1H-cyclopenta[a]phenanthren-17-yl)ethyl)-1-oxoisoindoline-5-carbonitrile], the IC50 was < 0.1 µM. `CCOC[C@@]1(O)CC[C@H]2[C@H](CC[C@@H]3[C@@H]2CC[C@]2(C)[C@@H]([C@@H](C)NC(=O)c4ccccc4F)CC[C@@H]32)C1` [Example 42, N—((R)-1-((3R,5R,8R,9R,10S,13S,14S,17S)-3-(ethoxymethyl)-3-hydroxy-13-methylhexadecahydro-1H-cyclopenta[a]phenanthren-17-yl)ethyl)-2-fluorobenzamide] showed an IC50 of 0.1 to 1 µM. For `CCOC[C@@]1(O)CC[C@H]2[C@H](CC[C@@H]3[C@@H]2CC[C@]2(C)[C@@H]([C@@H](C)N4Cc5cc(C#N)ccc5C4=O)CC[C@@H]32)C1` [Example 43, 2-((R)-1-((3R,5R,8R,9R,10S,13S,14S,17S)-3-(ethoxymethyl)-3-hydroxy-13-methylhexadecahydro-1H-cyclopenta[a]phenanthren-17-yl)ethyl)-1-oxoisoindoline-5-carbonitrile], the IC50 was 0.1 to 1 µM. In the case of `COC[C@@]1(O)CC[C@H]2[C@H](CC[C@@H]3[C@@H]2CC[C@]2(C)[C@@H]([C@@H](C)N4Cc5cc(C#N)ccc5C4=O)CC[C@@H]32)C1` [Example 44, 2-((R)-1-((3R,5R,8R,9R,10S,13S,14S,17S)-3-hydroxy-3-(methoxymethyl)-13-methylhexadecahydro-1H-cyclopenta[a]phenanthren-17-yl)ethyl)-1-oxoisoindoline-5-carbonitrile], the IC50 is reported as < 0.1 µM. For `C[C@H]([C@H]1CC[C@H]2[C@@H]3CC[C@@H]4C[C@](C)(O)CC[C@@H]4[C@H]3CC[C@]12C)N1CCc2cc(C#N)ccc2C1=O` [Example 45, 2-((R)-1-((3R,5R,8R,9R,10S,13S,14S,17S)-3-hydroxy-3,13-dimethylhexadecahydro-1H-cyclopenta[a]phenanthren-17-yl)ethyl)-1-oxo-1,2,3,4-tetrahydroisoguinoline-6-carbonitrile], the IC50 was < 0.1 µM. With `CCOC[C@@]1(O)CC[C@H]2[C@H](CC[C@@H]3[C@@H]2CC[C@]2(C)[C@@H]([C@@H](C)N4CCc5cc(C#N)ccc5C4=O)CC[C@@H]32)C1` [Example 46, 2-((R)-1-((3R,5R,8R,9R,10S,13S,14S,17S)-3-(ethoxymethyl)-3-hydroxy-13-methylhexadecahydro-1H-cyclopenta[a]phenanthren-17-yl)ethyl)-1-oxo-1,2,3,4-tetrahydroisoquinoline-6-carbonitrile] the IC50 was < 0.1 µM. `COC[C@@]1(O)CC[C@H]2[C@H](CC[C@@H]3[C@@H]2CC[C@]2(C)[C@@H](CCn4nnc(C)n4)CC[C@@H]32)C1` [Example 47, (3R,5R,8R,9R,10S,13R,14S,17R)-3-(methoxymethyl)-13-methyl-17-(2-(5-methyl-2H-tetrazol-2-yl)ethyl)hexadecahydro-1H-cyclopenta[a]phenanthren-3-ol] was tested, and the IC50 was < 0.1 µM. In the case of `COC[C@@]1(O)CC[C@H]2[C@H](CC[C@@H]3[C@@H]2CC[C@]2(C)[C@@H](CCn4nnnc4C)CC[C@@H]32)C1` [Example 48, (3R,5R,8R,9R,10S,13R,14S,17R)-3-(methoxymethyl)-13-methyl-17-(2-(5-methyl-1H-tetrazol-1-yl)ethyl)hexadecahydro-1H-cyclopenta[a]phenanthren-3-ol], the IC50 is reported as < 0.1 µM. `COC[C@@]1(O)CC[C@H]2[C@H](CC[C@@H]3[C@@H]2CC[C@]2(C)[C@@H](CCn4nccn4)CC[C@@H]32)C1` [Example 49, (3R,5R,8R,9R,10S,13R,14S,17R)-17-(2-(2H-1,2,3-triazol-2-yl)ethyl)-3-(methoxymethyl)-13-methylhexadecahydro-1H-cyclopenta[a]phenanthren-3-ol] was tested, and the IC50 was < 0.1 µM. In the case of `COC[C@@]1(O)CC[C@H]2[C@H](CC[C@@H]3[C@@H]2CC[C@]2(C)[C@@H](CCn4ccnn4)CC[C@@H]32)C1` [Example 50, (3R,5R,8R,9R,10S,13R,14S,17R)-17-(2-(1H-1,2,3-triazol-1-yl)ethyl)-3-(methoxymethyl)-13-methylhexadecahydro-1H-cyclopenta[a]phenanthren-3-ol], the IC50 is reported as < 0.1 µM. `C[C@@H](Cn1cc(C#N)cn1)[C@H]1CC[C@H]2[C@@H]3CC[C@@H]4C[C@](C)(O)CC[C@@H]4[C@H]3CC[C@]12C` [Example 51, 1-((R)-2-((3R,5R,8R,9R,10S,13S,14S,17R)-3-hydroxy-3,13-dimethylhexadecahydro-1H-cyclopenta[a]phenanthren-17-yl)propyl)-1H-pyrazole-4-carbonitrile] was tested, and the IC50 was < 0.1 µM. With `C[C@H](Cn1cc(C#N)cn1)[C@H]1CC[C@H]2[C@@H]3CC[C@@H]4C[C@](C)(O)CC[C@@H]4[C@H]3CC[C@]12C` [Example 52, 1-((S)-2-((3R,5R,8R,9R,10S,13S,14S,17R)-3-hydroxy-3,13-dimethylhexadecahydro-1H-cyclopenta[a]phenanthren-17-yl)propyl)-1H-pyrazole-4-carbonitrile] the IC50 was < 0.1 µM. Compound `COC[C@@]1(O)CC[C@H]2[C@@H](CC[C@@H]3[C@@H]2CC[C@]2(C)[C@@H]([C@H](C)Cn4nnc(C)n4)CC[C@@H]32)C1` [Example 54, (3R,5S,8R,9R,10S,13S,14S,17R)-3-(methoxymethyl)-13-methyl-17-((S)-1-(5-methyl-2H-tetrazol-2-yl)propan-2-yl)hexadecahydro-1H-cyclopenta[a]phenanthren-3-ol] has an IC50 of 0.1 to 1 µM. For `COC[C@@]1(O)CC[C@H]2[C@@H](CC[C@@H]3[C@@H]2CC[C@]2(C)[C@@H]([C@@H](C)Cn4nnnc4C)CC[C@@H]32)C1` [Example 55, (3R,5S,8R,9R,10S,13S,14S,17R)-3-(methoxymethyl)-13-methyl-17-((R)-1-(5-methyl-1H-tetrazol-1-yl)propan-2-yl)hexadecahydro-1H-cyclopenta[a]phenanthren-3-ol], the IC50 was < 0.1 µM. Compound `COC[C@@]1(O)CC[C@H]2[C@@H](CC[C@@H]3[C@@H]2CC[C@]2(C)[C@@H]([C@H](C)Cn4nnnc4C)CC[C@@H]32)C1` [Example 56, (3R,5S,8R,9R,10S,13S,14S,17R)-3-(methoxymethyl)-13-methyl-17-((S)-1-(5-methyl-1H-tetrazol-1-yl)propan-2-yl)hexadecahydro-1H-cyclopenta[a]phenanthren-3-ol] has an IC50 of 0.1 to 1 µM. With `C[C@@H](Cn1nccn1)[C@H]1CC[C@H]2[C@@H]3CC[C@H]4C[C@](C)(O)CC[C@@H]4[C@H]3CC[C@]12C` [Example 57, (3R,5S,8R,9R,10S,13S,14S,17R)-17-((R)-1-(2H-1,2,3-triazol-2-yl)propan-2-yl)-3,13-dimethylhexadecahydro-1H-cyclopenta[a]phenanthren-3-ol] the IC50 was 0.1 to 1 µM. Work on `C[C@H](Cn1nccn1)[C@H]1CC[C@H]2[C@@H]3CC[C@H]4C[C@](C)(O)CC[C@@H]4[C@H]3CC[C@]12C` [Example 58, (3R,5S,8R,9R,10S,13S,14S,17R)-17-((S)-1-(2H-1,2,3-triazol-2-yl)propan-2-yl)-3,13-dimethylhexadecahydro-1H-cyclopenta[a]phenanthren-3-ol] yielded an IC50 of 1 to 10 µM. `C[C@@H](Cn1ccnn1)[C@H]1CC[C@H]2[C@@H]3CC[C@H]4C[C@](C)(O)CC[C@@H]4[C@H]3CC[C@]12C` [Example 59, (3R,5S,8R,9R,10S,13S,14S,17R)-17-((R)-1-(1H-1,2,3-triazol-1-yl)propan-2-yl)-3,13-dimethylhexadecahydro-1H-cyclopenta[a]phenanthren-3-ol] showed an IC50 of 0.1 to 1 µM. With `C[C@H](Cn1ccnn1)[C@H]1CC[C@H]2[C@@H]3CC[C@H]4C[C@](C)(O)CC[C@@H]4[C@H]3CC[C@]12C` [Example 60, (3R,5S,8R,9R,10S,13S,14S,17R)-17-((S)-1-(1H-1,2,3-triazol-1-yl)propan-2-yl)-3,13-dimethylhexadecahydro-1H-cyclopenta[a]phenanthren-3-ol] the IC50 was 0.1 to 1 µM. For `CC[C@@]1(O)CC[C@@]2(C)[C@H](CC[C@@H]3[C@@H]2CC[C@]2(C)[C@@H]([C@H](C)Cn4ccc(C#N)n4)CC[C@@H]32)C1` [Example 62, 1-((S)-2-((3R,5R,8R,9S,10S,13S,14S,17R)-3-ethyl-3-hydroxy-10,13-dimethylhexadecahydro-1H-cyclopenta[a]phenanthren-17-yl)propyl)-1H-pyrazole-3-carbonitrile], the IC50 was < 0.1 µM.
